Measured values reported in patent US4226883A, “Carbamate derivatives and method for manufacture thereof” (priority 1974, dated 1980).
In brackets after ≈: the same amount, converted by molar mass. Read-outs that look alike come from different tables or passages of the source.

Tests used:
in vivo = details: mouse, po
Description: Different amounts of the suspension were injected into the stomaches of test mice with a metal tube. For the test, male mice of the species ddY were used.

[1] = system: green rice leafhoppers of the strain RN; experiment: Test Example 3: dust spray test (20 mesh metal gauze cylinder); type: in vivo, Nephotettix cincticeps; details: for Effect of individual compound (RN), death ratio (%) (Table 9): dust, compound alone, RN strain; for mortality at 250 mg/cylinder / mortality at 100 mg/cylinder: 24 hr
[2] = system: resistant green rice leafhoppers (R); details: 1440 min
Description: (1) A 20-mg portion of a given test compound was weighed out and dissolved in 10 ml of acetone. The resultant solution was diluted at proper times with acetone.
(2) With a micro-syringe, the acetone solution of the test compound was topically applied to the thoracic region of female green rice leafhoppers at a fixed dose of 0.2 μl per head.
(3) The female green rice leafhoppers thus treated were placed in a plastic cup prepared in advance (measuring 7 cm in diameter and 3.5 cm in depth and containing rice seeds) and kept at a constant temperature of 26±1° C. After 24 hours' standing, the dead insects were counted.
In the case of a mixed insecticide, the LD50 was shown as a total dosage.

[3] = system: Culex pipiens pallens immunized against organophosphoric preparations, last larval state; experiment: Test Example 9 (W.H.O. method): mosquito larvae test; type: in vivo; details: read-out: Effect of compound used singly, LD50 (Table 16)
Description: (1) An ethyl alcohol solution of each test compound was diluted with water to varying concentrations in the range of from 0.01 to 1.0 ppm.
(2) A 200-ml portion of each solution of a different concentration was placed in a 300-ml beaker. Then 30 test insects were plunged into the solution and then removed.
(3) The insects removed from the solution were kept in a greenhouse at a constant temperature of 25±1° C. for 24 hours. At the end of 24 hours of standing, a count was taken of the number of insects that had died by that time.
The test described above was repeated twice or thrice.

[4] = system: green rice leafhoppers of the strain RN; experiment: Test Example 4: dust test with 35 mesh metal gauze; type: in vivo, Nephotettix cincticeps; details: Table 10, 35 mesh
Description: The test for insecticidal activity was performed by the following procedure. […] The dust of a test compound (pulverized by means of a shaking pulverizer made by Taira Kosakusho, Ltd.) was applied onto the tube contents at a prescribed rate by spraying from outside the metal gauze by means of a bell-jar duster. The dust of the test compound was prepared uniformly mixing 2 parts of the dust of the individual compound or 1 part each of the dusts of the mixture components (total 2 parts) and 98 parts of a carrier obtained by mixing talc and clay in equal volumes.

[5] = system: citrus red mites (Panonychus citri McGregor) immunized from Dimethoate; experiment: whole plant or invertebrate; details: foliar, 24 h, read-out: Mortality (%), Concentration 250 ppm
[6] = system: resistant green rice leafhoppers of RN-strain; details: green rice leafhopper, in vivo, topical or ocular
[7] = ratio of the resistant strain to the susceptible strain (LD50)
[8] = 2% dust, 250 mg, read-out: Mortality (%) after 24 hr., 250 mg Spray (Table 7)
[9] = 2% dust, 100 mg, read-out: Mortality (%) after 24 hr., 100 mg Spray (Table 7)
[10] = resistant Culex pipiens pallens larvae, compound alone, 24 hours

SMILES: CNC(=O)Oc1ccccc1C(C)C [Compound 1, 2-isopropylphenyl-N-methylcarbamate, reference compound]
- LD50 at 168 h (in vivo): 210 mg/kg
- Effect of individual compound (RN), death ratio (%) (Table 9) [1]: 0%
- Insecticidal Activity R/S (resistant ratio) [2, 7]: 23.0
- LD50 (μg/g) (Table 6), single compound ([2]; resistant strain (R), compound alone): 82.2 µg/g

SMILES: CCCNC(=O)Oc1ccccc1C(C)C [Compound 3, 2-isopropylphenyl-N-n-propylcarbamate]
- LC50 ([3]; Culex pipiens, 24 h): > 1 µg/mL
- LD50 at 168 h (in vivo): 1130 mg/kg
- Insecticidal Activity R/S (resistant ratio) [2, 7]: 1.3

SMILES: CCC(C)c1ccccc1OC(=O)NC (stereo not drawn) [Compound 6, 2-sec-butylphenyl-N-methylcarbamate]
- mortality at 250 mg/cylinder [1, 8]: 10%
- Effect of individual compound (RN), death ratio (%) (Table 9) [1]: 0%
- mortality at 100 mg ([4]; 1 hr, read-out: Death ratio (%) 1 hr., Dusting amount 100 mg): 0%
- mortality at 100 mg ([4]; 2 hrs, read-out: Death ratio (%) 2 hrs., Dusting amount 100 mg): 0%
- mortality at 100 mg ([4]; 4 hrs, read-out: Death ratio (%) 4 hrs., Dusting amount 100 mg): 0%
- mortality at 100 mg ([4]; 16 hrs, read-out: Death ratio (%) 16 hrs., Dusting amount 100 mg): 0%
- mortality at 100 mg ([4]; 24 hrs, read-out: Death ratio (%) 24 hrs., Dusting amount 100 mg): 0%
- mortality at 250 mg ([4]; 1 hr, read-out: Death ratio (%) 1 hr., Dusting amount 250 mg): 0%
- mortality at 250 mg ([4]; 2 hrs, read-out: Death ratio (%) 2 hrs., Dusting amount 250 mg): 0%
- mortality at 250 mg ([4]; 4 hrs, read-out: Death ratio (%) 4 hrs., Dusting amount 250 mg): 0%
- mortality at 250 mg ([4]; 16 hrs, read-out: Death ratio (%) 16 hrs., Dusting amount 250 mg): 0%
- mortality at 250 mg ([4]; 24 hrs, read-out: Death ratio (%) 24 hrs., Dusting amount 250 mg): 0%
- mortality at 500 mg ([4]; 1 hr, read-out: Death ratio (%) 1 hr., Dusting amount 500 mg): 0%
- mortality at 500 mg ([4]; 2 hrs, read-out: Death ratio (%) 2 hrs., Dusting amount 500 mg): 0%
- mortality at 500 mg ([4]; 4 hrs, read-out: Death ratio (%) 4 hrs., Dusting amount 500 mg): 0%
- mortality at 500 mg ([4]; 16 hrs, read-out: Death ratio (%) 16 hrs., Dusting amount 500 mg): 0%
- mortality at 500 mg ([4]; 24 hrs, read-out: Death ratio (%) 24 hrs., Dusting amount 500 mg): 0%
- Insecticidal Activity R/S (resistant ratio) [2, 7]: 28.4

SMILES: CCCNC(=O)Oc1ccccc1C(C)CC (stereo not drawn) [Compound 8, 2-sec-butylphenyl-N-n-propylcarbamate]
- LC50 ([3]; Culex pipiens, 24 h): > 1 µg/mL
- mortality at 250 mg/cylinder [1, 8]: 80%
- Insecticidal Activity R/S (resistant ratio) [2, 7]: 1.2

SMILES: CCC(C)c1cccc(OC(=O)NC)c1 (stereo not drawn) [Compound 15, 3-sec-butylphenyl-N-methylcarbamate, reference compound]
- LD50 at 168 h (in vivo): 87 mg/kg
- Insecticidal Activity R/S (resistant ratio) [2, 7]: 19.0

SMILES: CCCNC(=O)Oc1cccc(C(C)CC)c1 (stereo not drawn) [Compound 17, 3-sec-butylphenyl-N-n-propylcarbamate]
- LD50 at 168 h (in vivo): 30 to 300 mg/kg
- mortality (in vivo; 30 mg/kg): 0%
- mortality (in vivo; 300 mg/kg): 100%
- Insecticidal Activity R/S (resistant ratio) [2, 7]: 1.2

SMILES: CCCC(C)c1cccc(OC(=O)NC)c1 (stereo not drawn) [Compound 19, 3-sec-amylphenyl-N-methylcarbamate, reference compound]
- LD50 at 168 h (in vivo): 54 mg/kg
- Insecticidal Activity R/S (resistant ratio) ([2]; green rice leafhopper, in vivo, topical_or_ocular): 9.3

SMILES: CCCNC(=O)Oc1cccc(C(C)CCC)c1 (stereo not drawn) [Compound 21, 3-sec-amylphenyl-N-n-propylcarbamate]
- LD50 at 168 h (in vivo): 300 mg/kg
- Insecticidal Activity R/S (resistant ratio) [2, 7]: 2.9

SMILES: CCCNC(=O)Oc1ccc(C)c(C)c1 [Compound 37, 3,4-dimethylphenyl-N-n-propylcarbamate]
- LC50 ([3]; Culex pipiens, 24 h): > 1 µg/mL
- mortality at 100 mg/cylinder [1, 9]: 60%
- mortality at 250 mg/cylinder [1, 8]: 90%
- Insecticidal Activity R/S (resistant ratio) [2, 7]: 0.8

SMILES: CCCNC(=O)Oc1cc(C)cc(C)c1 [Compound 42, 3,5-dimethylphenyl-N-n-propylcarbamate]
- LC50 ([3]; Culex pipiens, 24 h): > 1 µg/mL
- mortality at 100 mg/cylinder [1, 9]: 70%
- mortality at 250 mg/cylinder [1, 8]: 95%
- mortality at 100 mg/cylinder ([1]; Table 8, dust 100 mg, read-out: Mortality (%) after 24 hr., Spray Volume 100 mg): 70%
- mortality at 250 mg/cylinder ([1]; Table 8, dust 250 mg, read-out: Mortality (%) after 24 hr., Spray Volume 250 mg): 95%
- Insecticidal Activity R/S (resistant ratio) [2, 7]: 0.7

SMILES: CCCNC(=O)Oc1ccc(CC)c(CC)c1 [Compound 51, 3,4-diethylphenyl-N-n-propylcarbamate]
- mortality at 250 ppm [5]: 80%

SMILES: CCCNC(=O)Oc1ccccc1OC(C)C [Compound 83, 2-isopropoxyphenyl-N-n-propylcarbamate]
- LC50 ([3]; Culex pipiens, 24 h): > 1 µg/mL
- death ratio (%), mixture with Compound No. 1 ([1]; Table 9, dust mixed with 1, RN): 80.0%
- death ratio (%), mixture with Compound No. 6* ([1]; Table 9, dust mixed with 6*, RN): 95.0%
- death ratio (%), mixture with Compound No. 24* ([1]; Table 9, dust mixed with 24*, RN): 82.5%
- death ratio (%), mixture with Compound No. 35* ([1]; Table 9, dust mixed with 35*, RN): 100%
- death ratio (%), mixture with Compound No. 40* ([1]; Table 9, dust mixed with 40*, RN): 82.5%
- death ratio (%), mixture with Compound No. 49* ([1]; Table 9, dust mixed with 49*, RN): 50.0%
- death ratio (%), mixture with Compound No. 81* ([1]; Table 9, dust mixed with 81*, RN): 100%
- death ratio (%), mixture with Compound No. 118* ([1]; Table 9, dust mixed with 118*, RN): 95.0%
- death ratio (%), mixture with Carbofuran ([1]; Table 9, dust mixed with Carbofuran, RN): 100%
- death ratio (%), mixture with Methomyl ([1]; Table 9, dust mixed with Methomyl, RN): 100%
- Effect of individual compound (RN), death ratio (%) (Table 9) [1]: 20.0%

SMILES: CCCNC(=O)Oc1cc(C)c(N(C)C)c(C)c1 [Compound 120, 3,5-dimethyl-4-dimethylaminophenyl-N-n-propylcarbamate]
- LD50 at 168 h (in vivo): 30 to 300 mg/kg
- mortality (in vivo; 30 mg/kg): 0%
- mortality (in vivo; 300 mg/kg): 100%

SMILES: CCOP(=S)(OCC)Oc1cc(C)nc(C(C)C)n1 [Diazinone, diethyl 2-isopropyl-6-methyl-4-pyrimidinyl phosphorothionate]
- LC50 ([3]; Culex pipiens, 24 h): 0.31 µg/mL (≈ 1.02 µM)
- LD50 (μg/g) (Table 13) [6]: 62.3 µg/g
- LD50 (μg/g) (Table 14) [6]: 62.2 µg/g

SMILES: CC(C)OP(=O)(OC(C)C)SCc1ccccc1 [IBP, S-benzyl diisopropyl phosphorothiolate]
- LD50 (μg/g) (Table 14) [6]: > 1,000 μg/g

SMILES: COP(=S)(OC)Oc1ccc([N+](=O)[O-])c(C)c1 [MEP, dimethyl 4-nitro-m-tolyl phosphorothionate]
- LC50 [3, 10]: 0.18 µg/mL (≈ 0.649 µM)
- LD50 (μg/g) (Table 13) [6]: > 4,000 μg/g

SMILES: COP(=S)(OC)Oc1ccc(SC)c(C)c1 [MPP, dimethyl 4-methylthio-m-tolyl phosphorothionate]
- LC50 [3, 10]: 0.1 µg/mL (≈ 0.359 µM)
- LD50 (μg/g) (Table 13) [6]: > 1,000 μg/g

SMILES: CCOC(=O)CC(SP(=S)(OC)OC)C(=O)OCC (stereo not drawn) [Malathion, S-[1,2-bis(ethoxycarbonyl)ethyl]dimethyl phosphorothiolothionate, reference compound]
- LC50 ([3]; Culex pipiens, 24 h): 0.31 µg/mL (≈ 0.938 µM)

SMILES: CCOC(=O)C(SP(=S)(OC)OC)c1ccccc1 (stereo not drawn) [PAP, S-[α-(ethoxycarbonyl)benzyl]dimethyl phosphorothiolothionate]
- LC50 [3, 10]: 0.16 µg/mL (≈ 0.499 µM)
- LD50 (μg/g) (Table 13) [6]: 804.3 µg/g
